Data from PMC9371267 (PLoS Biology, 2022).
Numbering of substitutions follows the chain as printed.

What was measured:
Assay type in all cases: cell-based
[1] = molecular target: T1, GALR2 R184^5.35×36V mutant (Homo sapiens, UniProt O43603, R184V); test: NanoBiT-based Gq activation assay, R184^5.35×36V; settings: HEK293-A; HEK293A; expression ~WT (1:5); normalized to WT (1:1); mean ± SEM, n = 3; ns p > 0.05 vs expression-matched WT
T1 construct: expressed in transfected cells; host or cells: HEK293A
T1 sequence (O43603 1-387 R184V): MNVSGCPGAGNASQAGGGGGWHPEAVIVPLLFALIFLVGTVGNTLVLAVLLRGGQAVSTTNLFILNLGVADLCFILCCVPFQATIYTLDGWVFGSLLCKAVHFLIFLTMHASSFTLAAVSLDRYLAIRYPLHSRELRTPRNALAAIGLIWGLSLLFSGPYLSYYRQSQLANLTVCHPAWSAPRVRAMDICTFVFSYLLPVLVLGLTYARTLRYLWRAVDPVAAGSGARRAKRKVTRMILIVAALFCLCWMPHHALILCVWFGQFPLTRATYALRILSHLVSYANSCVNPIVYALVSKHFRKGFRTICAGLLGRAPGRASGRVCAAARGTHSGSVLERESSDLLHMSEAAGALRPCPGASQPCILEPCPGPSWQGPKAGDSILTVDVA
Experimental: (§1) After an incubation for 1 day, the transfected cells were harvested, pelleted with centrifugation, and suspended in 2 mL of Hank’s balanced saline solution containing 0.01% bovine serum albumin (BSA fatty acid–free grade, SERVA) and 5 mM HEPES (pH 7.4) (assay buffer). The cell suspension was dispensed in a white 96-well plate at a volume of 80 μl per well and mixed with 20 μl of 50 μM coelenterazine (custom-synthesized by Amadis Chemical) diluted in the assay buffer. After 2-h incubation at room temperature, the plate was measured for baseline luminescence (SpectraMax L, Molecular Devices). […] Kinetics data points from 5 min to 10 min were averaged and normalized to the initial count and used as a G-protein activation index. The G-protein activation signals were fitted to a 4-parameter sigmoidal concentration-response curve (GraphPad Prism8), and pEC50 values (negative logarithmic values of EC50 values) and Span values (“Top”–“Bottom”) were obtained. For individual experiments, we calculated Emax by normalizing Span to the WT GALR2 and ΔpEC50 by subtracting pEC50 of the WT GALR2 performed in parallel. We also calculated Emax/EC50 of GALR2 mutants relative to that of GALR2 WT, a dimensionless parameter known as relative intrinsic activity (RAi) and used its log-transformed value (Log RAi) to denote receptor activity.

[2] = molecular target: T2, GALR2 Y164^4.64×65F mutant (Homo sapiens, UniProt O43603, Y164F); test: NanoBiT-based Gq activation assay, Y164^4.64×65F; settings: HEK293-A; HEK293A; expression ~WT (1:2.5); normalized to WT (1:1); mean ± SEM, n = 3; * p < 0.05 vs expression-matched WT
T2 construct: expressed in transfected cells; host or cells: HEK293A
T2 sequence (O43603 1-387 Y164F): T1 sequence (O43603 1-387 R184V) with Y164F, V184R
Experimental: as §1

[3] = molecular target: T3, GALR2 L255^6.54A mutant (Homo sapiens, UniProt O43603, L255A); test: NanoBiT-based Gq activation assay, L255^6.54A; settings: HEK293-A
T3 construct: expressed in transfected cells; host or cells: HEK293A
T3 sequence (O43603 1-387 L255A): T1 sequence (O43603 1-387 R184V) with V184R, L255A
Experimental: as §1

[4] = molecular target: T4, GALR2 H102^3.29A mutant (Homo sapiens, UniProt O43603, H102A); test: NanoBiT-based Gq activation assay, H102^3.29A; settings: HEK293-A; HEK293A; expression ~WT (1:10); normalized to WT (1:1); mean ± SEM, n = 3; ** p < 0.01 vs expression-matched WT
T4 construct: expressed in transfected cells; host or cells: HEK293A
T4 sequence (O43603 1-387 H102A): T1 sequence (O43603 1-387 R184V) with H102A, V184R
Experimental: as §1

[5] = molecular target: T5, GALR2 F264^ECL3A mutant (Homo sapiens, UniProt O43603, F264A); test: NanoBiT-based Gq activation assay, F264^ECL3A; settings: HEK293-A; HEK293A; expression ~WT (1:1); normalized to WT (1:1); mean ± SEM, n = 3; ns p > 0.05 vs expression-matched WT
T5 construct: expressed in transfected cells; host or cells: HEK293A
T5 sequence (O43603 1-387 F264A): T1 sequence (O43603 1-387 R184V) with V184R, F264A
Experimental: as §1

SMILES: CC(C)C[C@H](NC(=O)CNC(=O)[C@H](CC(N)=O)NC(=O)[C@H](CCCCN)NC(=O)[C@H](CC(=O)O)NC(=O)[C@H](CO)NC(=O)[C@H](Cc1ccccc1)NC(=O)[C@H](CO)NC(=O)[C@H](CCCNC(=N)N)NC(=O)[C@H](Cc1c[nH]cn1)NC(=O)[C@H](CC(N)=O)NC(=O)CNC(=O)[C@@H](NC(=O)[C@H](C)NC(=O)[C@H](Cc1c[nH]cn1)NC(=O)[C@@H]1CCCN1C(=O)CNC(=O)[C@H](CC(C)C)NC(=O)[C@H](CC(C)C)NC(=O)[C@H](Cc1ccc(O)cc1)NC(=O)CNC(=O)[C@H](C)NC(=O)[C@H](CO)NC(=O)[C@H](CC(N)=O)NC(=O)[C@H](CC(C)C)NC(=O)[C@@H](NC(=O)[C@H](Cc1c[nH]c2ccccc12)NC(=O)CN)[C@@H](C)O)C(C)C)C(=O)N[C@H](C(=O)N[C@@H](CO)C(=O)O)[C@@H](C)O [galanin]
- Emax [1]: 60 ± 6%
- Emax [2]: 64.9 ± 2.4%
- Emax [3]: 64.7 ± 1.6%
- Emax [4]: 17.4 ± 2.4%
- Emax [5]: 90.3 ± 2.3%
